The values that follow come from US20060079696A1, “Substituted compounds derived from N-(benzyl)phenylacetamide, preparation and uses” (GENFIT, priority 2004, published 2006).

The target of this test is T1, ATP-dependent potassium channels (K+ATP) (Rattus norvegicus, UniProt Q09429).
T1 construct: the potassium channels derive from a rat's cerebral cortex; tissue CEREP; host or cells: rat cerebral cortex
T1 sequence (Q09429 whole entry): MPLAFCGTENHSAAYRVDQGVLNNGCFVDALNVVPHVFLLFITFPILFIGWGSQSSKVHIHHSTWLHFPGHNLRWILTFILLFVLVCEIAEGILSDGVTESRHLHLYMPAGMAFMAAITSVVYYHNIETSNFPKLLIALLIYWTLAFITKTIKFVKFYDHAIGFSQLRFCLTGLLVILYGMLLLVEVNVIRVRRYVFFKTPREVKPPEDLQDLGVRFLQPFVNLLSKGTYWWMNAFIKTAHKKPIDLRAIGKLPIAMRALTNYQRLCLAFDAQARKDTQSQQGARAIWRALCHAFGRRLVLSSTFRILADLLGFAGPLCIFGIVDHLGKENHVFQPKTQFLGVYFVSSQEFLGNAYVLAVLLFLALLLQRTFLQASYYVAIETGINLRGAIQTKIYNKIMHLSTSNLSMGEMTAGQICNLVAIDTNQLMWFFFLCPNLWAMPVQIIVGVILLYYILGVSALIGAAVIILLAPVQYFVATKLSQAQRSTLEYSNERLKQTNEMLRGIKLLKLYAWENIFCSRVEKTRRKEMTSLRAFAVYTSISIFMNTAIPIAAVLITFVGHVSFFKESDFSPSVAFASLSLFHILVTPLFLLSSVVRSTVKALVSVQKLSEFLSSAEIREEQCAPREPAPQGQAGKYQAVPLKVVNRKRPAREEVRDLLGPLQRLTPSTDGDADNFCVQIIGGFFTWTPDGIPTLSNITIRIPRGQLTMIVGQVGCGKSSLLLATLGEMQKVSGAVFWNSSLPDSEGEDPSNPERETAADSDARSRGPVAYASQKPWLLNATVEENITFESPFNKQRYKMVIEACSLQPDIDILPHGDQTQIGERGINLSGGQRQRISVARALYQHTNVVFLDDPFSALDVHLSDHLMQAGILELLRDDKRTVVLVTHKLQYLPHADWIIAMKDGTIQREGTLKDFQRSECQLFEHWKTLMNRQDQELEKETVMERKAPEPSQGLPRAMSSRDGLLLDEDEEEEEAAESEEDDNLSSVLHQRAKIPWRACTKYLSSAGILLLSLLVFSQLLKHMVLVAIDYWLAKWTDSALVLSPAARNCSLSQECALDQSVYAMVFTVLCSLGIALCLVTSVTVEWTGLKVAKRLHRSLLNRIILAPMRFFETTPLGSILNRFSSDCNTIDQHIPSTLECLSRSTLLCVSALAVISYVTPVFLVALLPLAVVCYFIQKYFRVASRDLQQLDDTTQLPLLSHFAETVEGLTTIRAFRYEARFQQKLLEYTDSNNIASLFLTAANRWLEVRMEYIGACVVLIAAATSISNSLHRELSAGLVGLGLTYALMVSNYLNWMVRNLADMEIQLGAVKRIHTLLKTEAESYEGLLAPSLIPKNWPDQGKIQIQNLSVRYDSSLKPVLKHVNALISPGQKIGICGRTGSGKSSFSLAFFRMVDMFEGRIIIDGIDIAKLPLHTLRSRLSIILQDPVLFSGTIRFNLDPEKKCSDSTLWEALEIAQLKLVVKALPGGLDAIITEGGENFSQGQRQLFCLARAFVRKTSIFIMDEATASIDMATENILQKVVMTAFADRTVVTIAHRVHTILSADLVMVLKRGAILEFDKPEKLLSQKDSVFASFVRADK
T1 sequence (P70673 whole entry partner): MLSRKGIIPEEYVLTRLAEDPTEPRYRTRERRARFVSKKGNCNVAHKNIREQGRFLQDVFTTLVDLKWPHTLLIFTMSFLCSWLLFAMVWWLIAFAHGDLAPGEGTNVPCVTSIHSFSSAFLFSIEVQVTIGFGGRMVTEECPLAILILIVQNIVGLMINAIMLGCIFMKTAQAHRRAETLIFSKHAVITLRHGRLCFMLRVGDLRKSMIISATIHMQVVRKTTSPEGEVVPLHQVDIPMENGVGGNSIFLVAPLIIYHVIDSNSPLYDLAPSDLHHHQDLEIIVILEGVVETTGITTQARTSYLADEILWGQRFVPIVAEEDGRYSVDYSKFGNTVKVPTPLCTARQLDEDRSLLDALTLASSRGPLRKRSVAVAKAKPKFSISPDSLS
Nature of the test: [3H]glibenclamide binding to ATP-dependent potassium channels of rat cerebral cortex. To be noted: 1 h; 300 nM; specific displacement of [3H]glibenclamide 0.1 nM; read-out: KATP binding (300 nM). The protocol: The results shown reflect the specific affinity of the inventive compounds on the ATP-dependent (K^+ATP) potassium channels. The specific binding measured corresponds to the difference between the total binding and the non-specific binding determined in the presence of an excess of non-marked reference ligand (glibenclamide 1 μM). The inventive compounds were tested at doses between 3 and 300 nM: the higher the percentage measured, the stronger the affinity of the compound for the ATP-dependent potassium channels.
The binding test was carried out at CEREP (Celle L'Evescault, France (86)) according to a protocol inspired by Angel et al. (Angel and Bidet 1991): the potassium channels derive from a rat's cerebral cortex and the reference compound is [^3H]glibenclamide at 0.1 nM. The protocol consists of incubation at 22° C. for one hour.
As for `CC(C)(Oc1ccc(CC(=O)NC(c2ccccc2)c2ccccc2N2CCCCC2)cc1)C(=O)O` (stereo not drawn) [Compound 3, 2-[4-[1-(1-phenyl-1-(2-(1-piperidinyl)phenyl)methyl)aminocarbonylmethyl]phenoxy]-2-methylpropanoic acid], the inhibition at 0.3 µM was 75%.

Consider `CC(C)(Oc1ccc(CC(=O)NC(c2ccccc2N2CCCCC2)C2CCCCC2)cc1)C(=O)O` (stereo not drawn) [Compound 6, 2-[4-[1-(1-cyclohexyl-1-(2-(1-piperidinyl)phenyl)methyl)aminocarbonylmethyl]phenoxy]-2-methylpropanoic acid], for which the inhibition at 0.3 µM worked out at 47%.

On to `CC(C)CC(NC(=O)Cc1ccc(OC(C)(C)C(=O)O)cc1)c1cccc(N2CCCCC2)c1` (stereo not drawn) [Compound 8, 2-[4-[1-(3-methyl-1-(3-(1-piperidinyl)phenyl)butyl)aminocarbonylmethyl]phenoxy]-2-methylpropanoic acid], for which the inhibition at 0.3 µM worked out at 48%.

Take `CC(C)CC(NC(=O)Cc1ccc(OC(C)(C)C(=O)O)cc1)c1ccccc1N1CCCC1` (stereo not drawn) [Compound 16, 2-[4-[1-(3-methyl-1-(2-(1-pyrrolidinyl)phenyl)butyl)aminocarbonylmethyl]phenoxy]-2-methylpropanoic acid]: the inhibition at 0.3 µM is 76%.

Regarding `CC(C)CC(NC(=O)Cc1ccc(OC(C)(C)C(=O)O)cc1)c1ccccc1N1CCCCCC1` (stereo not drawn) [Compound 18, 2-[4-[1-(3-methyl-1-(2-(1-hexamethyleneimino)phenyl)butyl)aminocarbonylmethyl]phenoxy]-2-methylpropanoic acid], the inhibition at 0.3 µM was 69%.

As to `CCN(CC)c1ccccc1C(CC(C)C)NC(=O)Cc1ccc(OC(C)(C)C(=O)O)cc1` (stereo not drawn) [Compound 20, 2-[4-[1-(3-methyl-1-(2-(diethylamino)phenyl)butyl)aminocarbonylmethyl]phenoxy]-2-methylpropanoic acid], the inhibition at 0.3 µM came to 85%.

For the compound `CC(C)CC(NC(=O)Cc1ccc(OC(C)(C)C(=O)O)cc1)c1cc(Cl)ccc1N1CCCCC1` (stereo not drawn) [Compound 22, 2-[4-[1-(3-methyl-1-(2-(1-piperidinyl)-5-(chloro)phenyl)butyl)aminocarbonylmethyl]phenoxy]-2-methylpropanoic acid], the inhibition at 0.3 µM was 88%.

As to `CC(C)CC(NC(=O)Cc1ccc(OCC(=O)O)cc1)c1ccccc1N1CCCCC1` (stereo not drawn) [Compound 23, 2-[4-[1-(3-methyl-1-(2-(1-piperidinyl)phenyl)butyl)aminocarbonylmethyl]phenoxy]acetic acid], the inhibition at 0.3 µM came to 97%.

`CC(C)CC(NC(=O)Cc1ccc(OC(C)C(=O)O)cc1)c1ccccc1N1CCCCC1` (stereo not drawn) [Compound 24, 2-[4-[1-(3-methyl-1-(2-(1-piperidinyl)phenyl)butyl)aminocarbonylmethyl]phenoxy]propanoic acid]: the inhibition at 0.3 µM was 93%.

For the compound `CCC(Oc1ccc(CC(=O)NC(CC(C)C)c2ccccc2N2CCCCC2)cc1)C(=O)O` (stereo not drawn) [Compound 25, 2-[4-[1-(3-methyl-1-(2-(1-piperidinyl)phenyl)butyl)aminocarbonylmethyl]phenoxy]butanoic acid], the inhibition at 0.3 µM is 91%.

`CC(C)CC(NC(=O)Cc1ccc(OC(C(=O)O)C(C)C)cc1)c1ccccc1N1CCCCC1` (stereo not drawn) [Compound 26, 2-[4-[1-(3-methyl-1-(2-(1-piperidinyl)phenyl)butyl)aminocarbonylmethyl]phenoxy]-3-methylbutanoic acid]: the inhibition at 0.3 µM stood at 92%.

Regarding `CC(C)CC(NC(=O)Cc1ccc(OC(C(=O)O)c2ccccc2)cc1)c1ccccc1N1CCCCC1` (stereo not drawn) [Compound 27, 2-[4-[1-(3-methyl-1-(2-(1-piperidinyl)phenyl)butyl)aminocarbonylmethyl]phenoxy]-2-phenylacetic acid], the inhibition at 0.3 µM came out at 95%.

For `CC(C)CC(NC(=O)Cc1cccc(OC(C)(C)C(=O)O)c1)c1ccccc1N1CCCCC1` (stereo not drawn) [Compound 29, 2-[3-[1-(3-methyl-1-(2-(1-piperidinyl)phenyl)butyl)aminocarbonylmethyl]phenoxy]-2-methylpropanoic acid], the inhibition at 0.3 µM was 15%.

As for `CCCCC(c1ccccc1N1CCCCC1)N(CC(C)C)C(=O)Cc1ccc(OC(C)(C)C(=O)O)cc1` (stereo not drawn) [Compound 35, 2-[4-[N-isobutyl-N-(1-(2-(1-piperidinyl)phenyl)pentyl)aminocarbonylmethyl]phenoxy]-2-methylpropanoic acid], the inhibition at 0.3 µM is 22%.

On to `CC(C)CC(NC(=O)Cc1ccc(OC(C)(C)C(=O)O)cc1)c1cc(Br)ccc1N1CCCCC1` (stereo not drawn) [Compound 37, 2-[4-[1-(3-methyl-1-(2-(1-piperidinyl)-5-(bromo)phenyl)butyl)aminocarbonylmethyl]phenoxy]-2-methylpropanoic acid], for which the inhibition at 0.3 µM amounted to 76%.

As for `CCCCC(NC(=O)Cc1ccc(OC(C)(C)C(=O)O)cc1)c1ccccc1S(=O)(=O)c1ccccc1` (stereo not drawn) [Compound 41, 2-[4-[1-(1-(2-(phenylsulfonyl)phenyl)pentyl)aminocarbonylmethyl]phenoxy]-2-methylpropanoic acid], the inhibition at 0.3 µM was found to be 12%.

`CCCCC(NC(=O)Cc1ccc(OC(C)(C)C(=O)O)cc1)c1ccccc1O` (stereo not drawn) [Compound 44, 2-[4-[1-(1-(2-(hydroxy)phenyl)pentyl)aminocarbonylmethyl]phenoxy]-2-methylpropanoic acid]: the inhibition at 0.3 µM came out at 48%.

Consider `CC(C)(Oc1ccc(CC(=O)NC(CCc2ccccc2)c2ccccc2N2CCCCC2)cc1)C(=O)O` (stereo not drawn) [Compound 51, 2-[4-[1-(3-phenyl-1-(2-(1-piperidinyl)phenyl)propyl)aminocarbonylmethyl]phenoxy]-2-methylpropanoic acid], for which the inhibition at 0.3 µM was determined as 32%.

For `CC(C)CC(NC(=O)Cc1ccc(OC(C)(C)C(=O)O)c(Cl)c1)c1ccccc1N1CCCCC1` (stereo not drawn) [Compound 56, 2-[2-chloro-4-[1-(3-methyl-1-(2-(1-piperidinyl)phenyl)butyl)aminocarbonylmethyl]phenoxy]-2-methylpropanoic acid], the inhibition at 0.3 µM was 49%.

As to `CC(C)CC(NC(=O)Cc1ccc(OC(C)(C)C(=O)NS(C)(=O)=O)cc1)c1ccccc1N1CCCCC1` (stereo not drawn) [Compound 58, N-[methylsulfonyl]-2-[4-[1-(3-methyl-1-(2-(1-piperidinyl)phenyl)butyl)aminocarbonylmethyl]phenoxy]-2-methylpropanamide], the inhibition at 0.3 µM turned out to be 94%.

As for `CC(C)(Oc1ccc(CC(=O)NC(Cc2ccccc2)c2ccccc2N2CCCCC2)cc1)C(=O)NS(C)(=O)=O` (stereo not drawn) [Compound 62, N-[methylsulfonyl]-2-[4-[1-(2-phenyl-1-(2-(1-piperidinyl)phenyl)ethyl)aminocarbonylmethyl]phenoxy]-2-methylpropanamide], the inhibition at 0.3 µM was 46%.
